Data: patent US20160010059A1, “EXPANSION OF HEMATOPOIETIC PROGENITOR CELLS BY HISTONE METHYLTRANSFERASE G9a INHIBITION” (The Regents of the University of California, priority 2013, published 2016)
“Also recorded” adds a separate entry of the source.

Columns and labels:
HSC-related genes = assay: Global gene expression analysis (RNA-seq) of KLS fractions after 5 days in vitro culture; type: cell-based, mouse; conditions: 5 days culture
[1] = system: H3k9me2 on putative G9a targets; assay: ChIP-qPCR of histone marks on putative G9a targets identified by RNA-seq; type: cell-based, mouse; conditions: n=3
KLS cells = assay: Replating of cultured cells into liquid culture with SCF and TPO (proliferation capacity); type: cell-based, mouse
[2] = system: lethally irradiated C57BL/6 mice; assay: Transplantation of cultured HSCs into lethally irradiated mice (chimerism); type: in vivo, mouse
H3K9me2 / H3K9me3 = assay: Histone western blot and immunofluorescence in UNC0638 treated cells; type: cell-based, mouse
Method: (§1) For western blot, FACS sorted cells were lysed in RIPA buffer, and run in a 15% gradient SDS-page (BIO-RAD). Histone modifications were assessed with antibodies against H3k27me3 (07-449 Millipore), H3 Acetylated (06-599), H4K16Ac (07-329), H3k4me3 (07-473), total H3 (06-755), H3k36me3 (Ab9050 abcam), H3k9me2 (Ab1220), H3k9me3 (Ab8898). Cells were incubated with the HDAC inhibitor trichostatin A (Cell signaling) at 37° C. for 2 hours to induce histone acetylation. For immunostaining cells were sorted onto poly-lysine coated slides, fixed with 2% PFA, permeabilized with 0.1% triton-x in PBS, and stained with H3k9me3 (Ab8898), Lamin B (sc-6217) antibodies followed by an Alexa488-Donkey-α-goat and a Alexa594-goat-α-rabbit secondary antibody (Invitrogen) plus DAPI. Images were acquired using a PerkinElmer Volocity spinning disk confocal microscope. Image analysis was done using ImageJ software (Schneider et al., 2012).

histone acetylation = assay: Histone western blot after HDAC inhibitor treatment (assay sensitivity control); type: cell-based, mouse; conditions: 37° C. for 2 hours
Method: as §1

Row | Structure (SMILES) | downregulated genes (HSC-related genes; Egr1, Ndn, Robo4) | upregulated genes (HSC-related genes; vs DMSO control, DESEQ padj<0.01, e.g. Sox6, Itga2b, Gata1, Fgf3) | levels of H3k9me2 on putative G9a targets [1] | levels of H3k9me3 on putative G9a targets [1] | levels of active mark H3K4me3 on putative G9a targets [1] | proliferation capacity (KLS cells; after day 5 of in vitro culture) | proliferation capacity (KLS cells; replating equal amounts of KLS after 5 days culture) | number of cells (KLS cells; replating equal amounts of Kit+ cells, 10 days in culture) | lineage readout after transplantation ([2]; 24 hrs or 5 days culture) | Percentage of chimerism / engraftment ([2]; cells cultured for 24 hrs with UNC0638 before transplantation, n=10 per group) | Percentage of chimerism / engraftment ([2]; cells cultured for 5 days on AFT024 feeder layers with UNC0638 before transplantation, n=10) | amount of H3K9me2 by western blot (H3K9me2 / H3K9me3; UNC0638 treated cells) | distribution of H3K9me3 by immunofluorescence (H3K9me2 / H3K9me3; compared to the DMSO treated control) | global levels of histone acetylation (histone acetylation)
1 | COc1cc2c(NC3CCN(C(C)C)CC3)nc(C3CCCCC3)nc2cc1OCCCN1CCCC1 [UNC0638] | significantly downregulation of some genes | significant number of HSC-related genes upregulated; also recorded: significant number of upregulated HSC-related genes | significantly lower amount of H3K9me2 at their promoter; also recorded: significantly reduced levels of H3k9me2 | trend to lower amount of H3K9me3; also recorded: mild trend toward H3k9me3 reduction | no differences for the active mark H3K4me3 | increase proliferation capacity after day 5 | equal proliferation capacity as the KLS control cells | significant higher number of cells after 10 days in culture | no defects in lineage potential; also recorded: readout in all 5 lineages | minor increase in engraftment; also recorded: positive trend in higher chimerism for UNC0638 treated cells in all myeloid and lymphoid lineages, though not significant | modest increase in the levels of engraftment; also recorded: significantly higher % of GM and B chimerism | effect is highly enriched in the KLS fraction | more disperse distribution of this histone mark | 
2 | CC(/C=C/C(=O)NO)=C\[C@@H](C)C(=O)c1ccc(N(C)C)cc1 [trichostatin A] |  |  |  |  |  |  |  |  |  |  |  |  |  | significantly increased the global levels of histone acetylation
